Where two headings read alike, the source gives them in different places.
Tests used:
[1] = system: common carotid artery intima-media thickness; experiment: ASAP study: progression of common carotid atherosclerosis (slope of ultrasonographic mean CCA-IMT); assay type: in vivo, human; details: for mean adjusted 3-year change of the mean carotid artery intima-media thickness (supplement: Yes): multivariate general linear model; for OR of atherosclerotic progression: double placebo as reference; for average unadjusted increase (slope) of the mean CCA-IMT: 3 years; for treatment effect on the proportion with progression: compared with placebo
Description: All subjects gave a written informed consent.
The subjects came to baseline visits and were randomised. Follow-up visits were 6, 12, 18, 24, 30 and 36 months later. Supplements were given, returned tablets were counted and ultrasonographic assessment of common carotid artery (CCA) intima-media thickness (IMT) was carried out at all these seven visits.
Equipment: Two identical Biosound Phase 2 systems were used (Biosound, Indianapolis, Ind., USA) equipped with a 8-10 MHz annular array transducer, with a measurement precision of 0.03 mm (41). The scannings were videotaped with PAL S-VHS Panasonic AG 7330E VCR.
Scanning (imaging) procedure and videorecording: The ultrasonographic scanning of the common carotid arteries (CCA), the carotid bulbs and the proximal internal carotid artery (ICA) was performed after a supine rest of 10 minutes, the subject in the supine position. […] The scanning was started with a diagnostic examination of entire accessible carotid tree, to find the most severe lesions. Secondly, the site of the greatest IMT at baseline in the CCA far wall was located and scanned thoroughly. This area was scanned from three angles: anterolateral, lateral and posterolateral.
Measurement from videotapes: All IMT measurements (both baseline and follow-up) from videotapes were made at the same site and angle at all examinations of each subject, which was the site with the greatest IMT (in any angle) which was clearly visible at baseline in the far wall of in CCA below the bulb. At this location IMT was measured in diastole for a length of 10 mm (or shorter, if not visible) in one angle for the far wall. Most often this was the distal centimeter of CCA. All IMT measurements were carried out after the 36-month examination.
Ultrasound image analysis: Computer analysis of ultrasound images to measure IMT was performed with a reading station equipped with Data Translation DT 2861 video frame grabber interfaced to a Panasonic AG 7355 VCR. The Prosound software, utilising automated boundary detection, was used. IMT was determined as the average difference at on the average 100 points between intima/lumen and media/adventitia interface (42).
Construction of the main outcome variable: Atherosclerotic progression was defined a priori as the linear regression slope of the mean common carotid IMT over six or seven points of follow-up time (0, 6, 12, 18, 24, 30 and 36 months). For 34 subjects, one follow-up was missing. First, the mean CCA-IMT from the right and the left side was averaged, and then the slope was computed across time-specific means.
All study participants for whom the main outcome variable was available, were included in the statistical analysis. Analyses were according to the intention-to-treat principle. As the subjects were randomised separately in four strata (smoking men, non-smoking men, smoking women, non-smoking women), this stratification was maintained also in the statistical analysis. As the a priori power calculations were based on stratified analysis in men and women, the primary statistical analysis was done in these two strata (Table 6).
To test the consistency of results, the outcome variable, the slope of the mean CCA-IMT over all available follow-up assessments, was used both as a continuous variable in general linear models and as a dichotomous variable in logistic models. The cut-off for the dichotomisation was the median among all 225 men. […] Odds ratios were estimated as antilogarithms of coefficients and their confidence intervals (Cl) based on normality assumption of SPSS 8.0 for Windows.
Three dummy variables were constructed to indicate whether the participant was randomised to receive only vitamin E, only vitamin C or both vitamins, and these were entered jointly in logistic models. The comparisons in the linear models were between each treatment group and all other groups. […]

[2] = Description: (§1) The study consisted of 8-week dietary counseling and placebo lead-in phase and a 3-year double-masked phase, for which the subjects were randomly allocated to either (i) […] of d-α-tocopheryl acetate twice daily (272 IU of vitamin E a day), ii) 250 mg slow-release ascorbic acid twice daily, (iii) both d-α-tocopheryl acetate and ascorbic acid in a single tablet, or (iv) placebo only. After the double-blind 3-year period, the study is continuing for another three years as an open study. The doses were chosen on the basis of pilot and kinetic studies (13, 15). The subjects were randomised separately in four strata of approximately equal size: (1) smoking (^35 cigarettes/day) men, (2) nonsmoking men, (3) smoking postmenopausal women, and (4) nonsmoking postmenopausal women. All subjects gave a written informed consent.
[3] = in vivo
Description: The inventors conducted a controlled trial with a formulation including both slow release vitamin C and conventional release vitamin E (250 mg AA and 91 mg α-tocopherol). 520 men and women, smokers and non-smokers, were randomised to vitamin C slow release, vitamin E, a formulation with vitamin E and slow release vitamin C, or placebo (Table 4).
In a double-masked 2×2 factorial trial, 520 smoking and non-smoking men and postmenopausal women aged 45-69 years with serum cholesterol ^35.0 […] were randomised in these four strata to receive either 182 mg of d-α-tocopheryl acetate, 500 mg of slow-release vitamin C daily, both or placebo for three years. Atherosclerotic progression was defined as linear regression slope of the mean ultrasonographically assessed common carotid intima-media thickness (IMT) over time.
as §1
Ascorbic acid was stabilised in heparin plasma with metaphosphoric acid immediately after plasma separation, and frozen at −80° C. Combined ascorbic acid and dehydroascorbic acid were determined with an HPLC method (39). Heparin plasma for α-tocopherol was extracted with ethanol and hexane and measured by a reversed phase HPLC method (15). Cholesterol and triglycerides were determined with enzymatic […] methods (30). Serum LDL cholesterol was measured based on precipitation using polyvinyl sulfate and HDL cholesterol after precipitation with magnesium chloride (30). Plasma fibrinogen concentration was determined with a clotting method (30), plasma homocysteine with an HPLC method (44), and serum ferritin by an immunoradiometric assay (Bio Rad, Quantimune, Hercules, Calif.). Dietary intake of foods and nutrients was assessed at baseline by 4-day instructed food recording. Physical activity was assessed by 12-month checked questionaire (43). Blood pressure was measured manually in sitting position after a rest of 10 minutes, three measurements at 3 minutes' intervals.

[4] = men (n = 225), multivariate logistic model
[5] = women (n = 233), multivariate logistic model
[6] = female, human, in vivo, 3 years

| Structure (SMILES) | mean adjusted 3-year change of the mean carotid artery intima-media thickness (supplement: Yes) ([1]; men (n = 225)) | OR of atherosclerotic progression [1, 4] | average unadjusted increase (slope) of the mean CCA-IMT ([1]; men, placebo 0.020) | treatment effect on the proportion with progression ([1]; men) | OR of atherosclerotic progression ([1]; non-smoking men (n = 125)) | OR of atherosclerotic progression ([1]; non-smoking women (n = 123)) | OR of atherosclerotic progression ([1]; smoking men (n = 100)) | OR of atherosclerotic progression ([1]; smoking women (n = 110)) | mean adjusted 3-year change of the mean carotid artery intima-media thickness (supplement: Yes) ([1]; women (n = 233)) | OR of atherosclerotic progression [1, 5] | average unadjusted increase (slope) of the mean CCA-IMT ([1]; women, placebo 0.016) | safety of the supplements ([2]; 3 years) | drop-outs: Death ([2]; men, number of subjects) | drop-outs: Death ([2]; women, number of subjects) | also measured |
| --- | --- | --- | --- | --- | --- | --- | --- | --- | --- | --- | --- | --- | --- | --- | --- |
| O=C1O[C@H]([C@@H](O)CO)C(O)=C1O [Vitamin C, ascorbic acid] | 0.0119 mm/year | 0.44 | 0.017 mm/year | non-significant | 0.30 | 0.99 | 0.45 | 0.69 | 0.0174 mm/year | 1.08 | 0.017 mm/year | safe | 1 | 0 | effect on atherosclerotic progression ([1]; smoking men): nonsignificant trend towards protection; drop-outs: Adverse event [2, 6]: 2; drop-outs: Severe adverse event [2, 6]: 1; drop-outs: Adverse event ([2]; male, human, in vivo, 3 years): 2; drop-outs: Severe adverse event ([2]; male, human, in vivo, 3 years): 1; drop-outs: Death ([2]; men, number of subjects, listed as vitamin C): One; change of plasma α-tocopherol (vitamin E in plasma) ([3]; female, human): 4.0%; change of plasma α-tocopherol (vitamin E in plasma) ([3]; male, human): 5.1%; mean plasma α-tocopherol concentration, after supplementation ([3]; male, human): 33.9 µmol/L; mean plasma α-tocopherol concentration, initial value ([3]; male, human): 32.3 µmol/L |
| CC(=O)Oc1c(C)c(C)c2c(c1C)CC[C@@](C)(CCC[C@H](C)CCC[C@H](C)CCCC(C)C)O2 [Vitamin E, d-α-tocopheryl acetate] | 0.0118 mm/year | 0.56 | 0.018 mm/year | non-significant | 1.07 | 1.13 | 0.21 | 0.76 | 0.0165 mm/year | 1.05 | 0.015 mm/year | safe | 3 | 0 | drop-outs: Adverse event ([2]; men, number of subjects): 1; drop-outs: Severe adverse event ([2]; men, number of subjects): 1; drop-outs: Death ([2]; men, number of subjects, listed as vitamin): three; drop-outs: Adverse event ([2]; women, number of subjects): 3; drop-outs: Severe adverse event ([2]; women, number of subjects): 2; mean plasma α-tocopherol concentration, after supplementation [3]: 60.1 µmol/L; mean plasma α-tocopherol concentration, initial value [3]: 31.7 µmol/L |

Reference: patent US6805880B1, “Pharmaceutical delivery system for vitamin C and vitamin E and use of a combination of vitamin C and E for preventing or treating conditions involving oxidative stress” (Ferrosan A/S, priority 1999, dated 2004)
